The results in this text go back to ChEMBL document CHEMBL5465560, “Selectivity Literature for EUbOPEN Chemogenomic Library” (2024).

Test [1] has as its target High affinity nerve growth factor receptor (Homo sapiens, UniProt P04629). The experiment in a line: Selectivity interaction (SelectScreen profiling (Invitrogen)) EUB0000607a NTRK1. The settings on record: at 2 µM.
For test [2], the target named is T1, Rhodopsin kinase GRK7 (Homo sapiens) (UniProt Q8WTQ7).
T1 sequence (whole entry): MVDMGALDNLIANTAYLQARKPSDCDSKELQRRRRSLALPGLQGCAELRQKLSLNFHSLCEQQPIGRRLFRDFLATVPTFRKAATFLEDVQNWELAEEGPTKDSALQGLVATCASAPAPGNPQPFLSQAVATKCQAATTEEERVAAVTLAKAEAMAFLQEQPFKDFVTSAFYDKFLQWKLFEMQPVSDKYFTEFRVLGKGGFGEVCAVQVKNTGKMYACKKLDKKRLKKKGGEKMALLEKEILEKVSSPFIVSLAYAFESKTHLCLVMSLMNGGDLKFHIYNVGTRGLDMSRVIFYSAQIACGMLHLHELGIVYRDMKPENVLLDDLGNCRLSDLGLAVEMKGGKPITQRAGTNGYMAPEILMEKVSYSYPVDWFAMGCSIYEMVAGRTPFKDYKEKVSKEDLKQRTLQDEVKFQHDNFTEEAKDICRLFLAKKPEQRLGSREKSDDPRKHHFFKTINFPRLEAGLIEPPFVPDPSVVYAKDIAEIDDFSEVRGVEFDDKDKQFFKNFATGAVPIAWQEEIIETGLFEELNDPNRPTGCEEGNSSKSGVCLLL
The experiment in a line: Selectivity interaction (Kinase panel (Invitrogen)) EUB0000639a GRK7. The settings on record: at 200 nM.

For test [3], the target named is T2, SNF-related serine/threonine-protein kinase (Homo sapiens) (UniProt Q9NRH2).
T2 sequence (whole entry): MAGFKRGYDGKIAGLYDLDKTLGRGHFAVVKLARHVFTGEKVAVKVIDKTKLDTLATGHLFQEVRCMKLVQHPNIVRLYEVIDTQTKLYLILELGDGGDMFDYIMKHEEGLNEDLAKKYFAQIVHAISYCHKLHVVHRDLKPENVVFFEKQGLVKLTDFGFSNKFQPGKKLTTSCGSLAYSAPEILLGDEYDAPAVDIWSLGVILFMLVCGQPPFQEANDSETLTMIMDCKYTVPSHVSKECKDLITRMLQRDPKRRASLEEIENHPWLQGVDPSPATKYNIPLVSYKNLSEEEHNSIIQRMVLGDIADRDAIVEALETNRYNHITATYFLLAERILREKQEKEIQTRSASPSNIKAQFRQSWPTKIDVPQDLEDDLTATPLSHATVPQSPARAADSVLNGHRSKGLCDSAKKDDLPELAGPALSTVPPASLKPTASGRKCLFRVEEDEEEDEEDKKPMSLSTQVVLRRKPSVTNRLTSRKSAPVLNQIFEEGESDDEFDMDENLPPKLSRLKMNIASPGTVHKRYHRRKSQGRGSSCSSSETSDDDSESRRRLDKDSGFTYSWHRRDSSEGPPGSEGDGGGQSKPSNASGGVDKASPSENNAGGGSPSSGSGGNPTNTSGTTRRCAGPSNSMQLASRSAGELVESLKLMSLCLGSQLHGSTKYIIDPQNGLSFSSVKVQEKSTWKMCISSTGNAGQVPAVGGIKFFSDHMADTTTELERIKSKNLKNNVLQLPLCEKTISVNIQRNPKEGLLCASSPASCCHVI
The experiment in a line: Selectivity interaction (ActivX KiNativ screen (kinase selectivity in THP-1 cell lysates)) EUB0000639a SNRK. Format: subcellular. The settings on record: lysate, at 0.2 µM.

Test [4] addresses T3, Histone-lysine N-methyltransferase EHMT1 (Homo sapiens) (UniProt Q9H9B1).
T3 sequence (whole entry): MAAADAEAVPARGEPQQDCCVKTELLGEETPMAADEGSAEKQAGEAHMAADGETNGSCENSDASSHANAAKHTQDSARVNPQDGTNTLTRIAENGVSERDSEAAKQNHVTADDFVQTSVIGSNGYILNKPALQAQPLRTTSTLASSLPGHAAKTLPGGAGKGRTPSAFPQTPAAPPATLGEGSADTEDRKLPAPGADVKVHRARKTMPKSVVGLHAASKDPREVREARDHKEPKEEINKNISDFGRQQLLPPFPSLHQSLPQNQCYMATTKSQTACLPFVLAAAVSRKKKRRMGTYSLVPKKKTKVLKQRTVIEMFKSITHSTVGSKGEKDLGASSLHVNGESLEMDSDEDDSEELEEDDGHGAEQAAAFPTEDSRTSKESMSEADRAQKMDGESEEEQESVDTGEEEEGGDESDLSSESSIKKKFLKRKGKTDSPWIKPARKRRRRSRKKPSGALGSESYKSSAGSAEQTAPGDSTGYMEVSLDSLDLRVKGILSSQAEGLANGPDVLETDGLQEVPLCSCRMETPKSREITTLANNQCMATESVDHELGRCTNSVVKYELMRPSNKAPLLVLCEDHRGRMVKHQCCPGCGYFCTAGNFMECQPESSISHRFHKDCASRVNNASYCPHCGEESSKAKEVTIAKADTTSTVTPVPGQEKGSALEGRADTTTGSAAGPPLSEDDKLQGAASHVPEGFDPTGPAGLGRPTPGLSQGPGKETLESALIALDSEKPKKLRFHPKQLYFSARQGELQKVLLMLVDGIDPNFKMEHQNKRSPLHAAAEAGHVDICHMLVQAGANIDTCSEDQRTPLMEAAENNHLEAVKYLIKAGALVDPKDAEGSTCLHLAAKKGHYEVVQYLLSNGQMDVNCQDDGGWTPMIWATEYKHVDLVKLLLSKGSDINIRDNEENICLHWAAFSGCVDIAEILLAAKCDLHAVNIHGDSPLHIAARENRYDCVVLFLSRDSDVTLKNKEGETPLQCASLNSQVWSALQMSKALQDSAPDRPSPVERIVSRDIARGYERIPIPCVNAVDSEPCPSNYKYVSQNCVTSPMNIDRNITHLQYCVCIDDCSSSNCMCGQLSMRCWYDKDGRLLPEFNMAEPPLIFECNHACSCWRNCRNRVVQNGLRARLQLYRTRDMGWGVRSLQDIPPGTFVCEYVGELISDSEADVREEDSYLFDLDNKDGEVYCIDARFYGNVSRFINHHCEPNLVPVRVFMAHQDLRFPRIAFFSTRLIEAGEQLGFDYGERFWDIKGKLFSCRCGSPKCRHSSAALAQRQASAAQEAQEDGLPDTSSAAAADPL
Conditions: at 10 µM.

The target in test [5] is Calcium/calmodulin-dependent protein kinase type II subunit gamma (Homo sapiens) (UniProt Q13555). The experiment in a line: Selectivity interaction (ProQinase) EUB0000171b CAMK2G.
Chain of Calcium/calmodulin-dependent protein kinase type II subunit gamma (Homo sapiens) (Q13555 whole entry): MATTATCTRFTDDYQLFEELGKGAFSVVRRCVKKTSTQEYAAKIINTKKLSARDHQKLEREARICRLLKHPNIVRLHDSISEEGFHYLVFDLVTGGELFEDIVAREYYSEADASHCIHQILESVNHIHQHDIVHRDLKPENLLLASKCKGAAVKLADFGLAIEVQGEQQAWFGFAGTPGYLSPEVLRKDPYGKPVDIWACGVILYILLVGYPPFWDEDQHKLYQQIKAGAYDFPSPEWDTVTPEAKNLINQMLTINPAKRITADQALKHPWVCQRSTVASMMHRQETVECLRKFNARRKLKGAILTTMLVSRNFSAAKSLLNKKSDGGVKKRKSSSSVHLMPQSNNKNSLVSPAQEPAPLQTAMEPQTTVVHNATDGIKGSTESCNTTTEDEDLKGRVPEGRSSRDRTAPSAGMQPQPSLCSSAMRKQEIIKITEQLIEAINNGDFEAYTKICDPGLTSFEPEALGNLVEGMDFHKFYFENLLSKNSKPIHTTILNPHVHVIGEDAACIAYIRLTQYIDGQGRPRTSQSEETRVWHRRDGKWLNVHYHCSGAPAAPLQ
In another test the target is Ephrin type-A receptor 4 (Homo sapiens, UniProt P54764). In words: Selectivity interaction (Ambit KINOMEscan and KiNATiv profiling in Jurkat cells) EUB0000090b EPHA4. The format is cell-based. Conditions: at 1 µM.
Chain of Ephrin type-A receptor 4 (P54764 whole entry): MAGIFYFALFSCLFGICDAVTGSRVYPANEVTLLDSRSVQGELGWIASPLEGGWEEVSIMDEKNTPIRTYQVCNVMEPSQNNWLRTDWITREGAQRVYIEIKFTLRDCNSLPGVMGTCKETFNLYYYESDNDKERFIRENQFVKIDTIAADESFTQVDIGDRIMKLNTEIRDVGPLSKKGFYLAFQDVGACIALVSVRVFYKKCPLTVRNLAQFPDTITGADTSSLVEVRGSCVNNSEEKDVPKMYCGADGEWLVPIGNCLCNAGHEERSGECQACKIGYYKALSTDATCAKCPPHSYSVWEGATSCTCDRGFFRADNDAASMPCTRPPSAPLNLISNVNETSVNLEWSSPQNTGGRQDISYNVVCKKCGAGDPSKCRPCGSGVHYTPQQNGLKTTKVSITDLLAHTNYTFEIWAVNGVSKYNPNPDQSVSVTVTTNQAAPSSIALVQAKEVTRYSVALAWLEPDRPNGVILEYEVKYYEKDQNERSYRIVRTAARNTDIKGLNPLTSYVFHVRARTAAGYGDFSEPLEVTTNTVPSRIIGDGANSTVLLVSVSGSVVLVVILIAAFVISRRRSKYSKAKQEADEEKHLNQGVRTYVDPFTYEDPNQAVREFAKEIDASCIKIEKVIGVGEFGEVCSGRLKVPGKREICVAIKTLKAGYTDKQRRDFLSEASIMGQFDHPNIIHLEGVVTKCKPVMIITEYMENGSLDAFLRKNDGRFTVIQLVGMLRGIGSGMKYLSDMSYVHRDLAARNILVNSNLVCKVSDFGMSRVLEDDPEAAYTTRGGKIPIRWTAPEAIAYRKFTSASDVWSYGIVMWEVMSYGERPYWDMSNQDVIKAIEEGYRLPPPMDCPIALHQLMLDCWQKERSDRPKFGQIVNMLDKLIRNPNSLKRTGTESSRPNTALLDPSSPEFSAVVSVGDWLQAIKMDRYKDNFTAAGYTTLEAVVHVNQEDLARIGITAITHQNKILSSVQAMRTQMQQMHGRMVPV
Test [6] in a line: Selectivity interaction (NMDA Channel site assay : rat brain cortex ) EUB0000877a GRIN1.
Test [7] has as its target Cyclin-dependent kinase 3 (Homo sapiens) (UniProt Q00526). The experiment in a line: Selectivity interaction (KinomeScan (DiscoverX)) EUB0001079a CDK3. The settings on record: at 1 µM.

Chain of High affinity nerve growth factor receptor (P04629 33-796 limits assumed): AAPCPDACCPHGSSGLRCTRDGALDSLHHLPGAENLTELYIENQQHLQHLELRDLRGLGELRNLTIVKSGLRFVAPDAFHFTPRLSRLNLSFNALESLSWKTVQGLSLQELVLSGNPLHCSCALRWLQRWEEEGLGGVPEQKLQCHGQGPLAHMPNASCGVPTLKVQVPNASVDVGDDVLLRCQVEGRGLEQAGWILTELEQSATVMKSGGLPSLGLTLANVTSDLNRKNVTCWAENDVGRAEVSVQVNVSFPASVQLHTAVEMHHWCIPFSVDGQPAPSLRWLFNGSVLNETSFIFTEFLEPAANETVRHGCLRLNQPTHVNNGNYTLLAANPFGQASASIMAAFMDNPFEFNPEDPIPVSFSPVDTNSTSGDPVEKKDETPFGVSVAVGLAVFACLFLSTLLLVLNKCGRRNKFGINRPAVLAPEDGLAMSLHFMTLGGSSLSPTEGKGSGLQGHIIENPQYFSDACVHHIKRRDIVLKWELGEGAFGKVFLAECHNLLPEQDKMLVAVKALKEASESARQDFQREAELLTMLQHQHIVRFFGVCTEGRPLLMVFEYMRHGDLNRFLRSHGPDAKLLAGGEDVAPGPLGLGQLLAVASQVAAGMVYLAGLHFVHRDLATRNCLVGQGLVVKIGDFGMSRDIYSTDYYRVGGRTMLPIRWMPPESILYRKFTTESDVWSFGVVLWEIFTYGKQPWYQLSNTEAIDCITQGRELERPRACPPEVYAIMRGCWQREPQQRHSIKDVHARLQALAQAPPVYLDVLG
Chain of Cyclin-dependent kinase 3 (Homo sapiens) (Q00526 whole entry, looked up): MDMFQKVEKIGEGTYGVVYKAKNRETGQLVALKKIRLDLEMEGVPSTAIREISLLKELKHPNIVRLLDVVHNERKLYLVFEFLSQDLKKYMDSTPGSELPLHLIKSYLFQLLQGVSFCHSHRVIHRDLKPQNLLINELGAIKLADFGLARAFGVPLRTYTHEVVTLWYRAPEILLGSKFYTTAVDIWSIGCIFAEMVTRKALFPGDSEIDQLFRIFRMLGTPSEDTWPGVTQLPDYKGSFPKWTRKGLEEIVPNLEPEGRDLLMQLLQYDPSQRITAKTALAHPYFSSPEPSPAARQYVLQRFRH

Take `CNC(=O)Nc1ccc(-c2nc(N3CC4CCC(C3)O4)c3cnn(C4CCC5(CC4)OCCO5)c3n2)cc1`: the % of inhibition in test [1] turned out to be 7%. In the case of `CC[C@@H]1[C@H](F)C(=O)N[C@@H]1COc1nccc2cc(C(N)=O)c(OC)cc12` [ZIMLOVISERTIB], the results for the % of inhibition in test [2] and in test [3] were 1.87% and 8.5%, respectively. `CNCCN1CCC(c2cc(CN(C)C(=O)c3cccc(Oc4ccccc4)c3)ccn2)CC1` registered a % activity in test [4] greater than 90%. Turning to `C=CC(=O)Nc1cccc(C(=O)Nc2ccc(Nc3cc(-c4[nH]c(SC)nc4C)ccn3)cc2)c1`, the % of control in test [5] (at 1 µM) turned out to be 81%; in test [5] (at 5 µM), 54%. For `CN(C)C/C=C/C(=O)Nc1ccc(C(=O)N2CCCC(Nc3ncc(Cl)c(-c4c[nH]c5ccccc45)n3)C2)cc1` (centres undefined), at Ephrin type-A receptor 4, the % of control turned out to be 98%. Take `CCC(=O)N1CC[C@H](Nc2ncnc3c2CN(c2cnc(OC)c(C(F)(F)F)c2)CC3)C1` [LENIOLISIB]: in test [6], the half-maximal inhibitory concentration (IC50) was greater than 30 µM.

The compound `Nc1cnc(N2CCc3cc(S(=O)(=O)Nc4c(F)cc(Cl)cc4F)cc(N4CCCC4=O)c32)nc1` [TP-020n] displayed a % of control in test [7] of 100%.
